# Test results reported in patent US9452122B2, “Composition for improving skin conditions, containing extracellular domain of human bone morphogenetic protein receptor 1a as active ingredient” (JOINT CENTER FOR BIOSCIENCES, priority 2011, dated 2016).
# System: wrinkles induced by UV radiation in SKH-1 nude mice
# Test: Wrinkle improvement effect of thioredoxin-human BMPR1a ECD in UV-irradiated nude mice (Example 5)
# Format: in vivo
# Conditions: UV 3 times/week for 11 weeks, 300 μl sample 5 times/week (proteins 1 μM, retinoic acid 0.01%)
# Experimental: SKH-1 nude mice (female, 4 weeks old, DooYeol Biotech, Korea) were acclimated for about 2 weeks under conditions of a temperature of 24±2° C. and a humidity of 50±10% in a 12-hr light/12-hr dark cycle, and then divided into six groups for the experiment.
# The protein group and control group were respectively treated with […] corresponding samples every week five times. For UV treatment, the back of each mouse was uniformly coated with the previously prepared sample one hour before UV radiation by using Art brush No. 3 (Hwahong, Incheon Korea).
# VLX-3W stimulator(Vilber Lourmat, Marne la Vallee, France) was used for a UV radiation equipment. UV radiation was conducted three times every week for a total of 11 weeks: 40 mJ/cm^2 for 1st to 2nd weeks; 50 mJ/cm^2 for 3rd to 4th weeks; 60 mJ/cm^2 for 5th to 9th weeks; and 70 mJ/cm^2 for 10th to 11th weeks.
# As the result of integration of the evaluations on respective items through observation by the naked eye, it was verified that skin wrinkles were improved by about 38% in the group coated with retinoic acid, about 42% in the group treated with Lipo-BMPR1a ECD, and about 59% in the group treated with Lipo-thioredoxin-BMPR1a ECD.
compound,measurement,value
CC1=C(/C=C/C(C)=C/C=C/C(C)=C/C(=O)O)C(C)(C)CCC1 [retinoic acid],skin wrinkles improved (wrinkle scores of 10 grades from photographs),about 38%
